Test results reported in patent US20240269144A1, “METHODS AND KITS FOR THE DETECTION OF MALIGNANCIES” (H. LEE MOFFITT CANCER CENTER AND RESEARCH INSTITUTE, INC., priority 2021, published 2024).
Read-outs that look alike come from different tables or passages of the source.

Experiments:
[1] = test system: malignant T cells; assay: EVOS drug assay (Cytolight Rapid Green / Cytox Red) on malignant T cells; format: cell-based
Experimental: FIGS. 9A, 9B, 9C, and 9D show the effects various anti-cancer agents on malignant T cells. Cells are stained green with the Cytolight Rapid Green Dye—freely pass thru the membrane, however, once inside the dye is transformed into cell-impermeant probe transferred to daughter cells. Once the cells have been stained the dye is removed. Stains live cells. Then the Cytox Red is added and left in the media. Cytox Red moves inside the cells when the cell membrane is compromised. Assays were read at 0, 6, 12, 18 and 24 hrs. Each timepoint is analyzed separately for the designated concentration of Palbociclib (CDK4/6 inhibitor)(9A), Omacetaxine mepesuccinate (HHT)(9B), CX5461 (rRNA synthesis inhibitor)(9C), or BTZO-1 (MIF inhibitor)(9D).
To see the effect of various inhibitors on malignant T cells, we an EVOS drug assay (FIG. 9) measuring varying concentrations and time points for Palbociclib (CDK4/6 inhibitor)(FIG. 9A), Omacetaxine mepesuccinate (HHT)(FIG. 9B), CX5461 (rRNA synthesis inhibitor)(FIG. 9C), and BTZO-1 (MIF inhibitor)(FIG. 9D). By 12 hours, killing of malignant T cells was observed reaching a maximum for all drugs by […].

[2] = test system: T-cell lymphoma lines Myla (MF), HH (MF—leukemic phase), Hu78 (SS); assay: OXPHOS inhibitor apoptosis assay (Annexin V/PI), T-cell lymphoma cell lines; format: cell-based
[3] = test system: acute myeloid leukemia and mantle cell lymphoma tumor cells; details: pre-clinical models of acute myeloid leukemia and mantle cell lymphoma; cited from earlier work
[4] = test system: T-cell lymphoma lines Myla (MF), HH (MF—leukemic phase), Hu78 (SS)
Experimental: MYC inhibitor (MYCi975) cell proliferation assay (right). Indicated cell lines were seeded on 96-well plates and treated with different dose of MYCi975 for 5 days. At day 5, cells were incubated with MTS reagent following manufacture's protocol (Promega Cat #G3580). Absorbance at OD490 nm was recorded and percentage of growth were normalized to vehicle control. Half maximal inhibitory concentration (IC50) was calculated based on curve fitting result using non-linear regression function of GraphPad Prism 8. The symbol represents the mean. The error bars represent the mean±s.e.m. n=12 (MyLa and Jurkat); n=8 (HH, MJ, Hu78).
To determine the sensitivity of CTCL and other T cell lymphomas to OXPHOS and MYC inhibition, we performed pharmacologic perturbation assays using IACS10759 and MYCi975 in MF and other TCL cell lines (FIG. 4F).
Established T-cell lymphoma lines were used for drug assays, including Myla (MF; Sigma Aldrich Cat #95051032), HH (MF—leukemic phase; ATCC Cat #CRL-2105), and Hu78 (SS; ATCC Cat #TIB-161), Jurkat (ATLL) and MJ (ATLL; ATCC Cat #8294).

[5] = target: MYC (Homo sapiens, UniProt P01106); details: cited from earlier work
[6] = test system: CTCL; details: MAVORIC trial, cited from earlier work
[7] = malignant T cells, at maximum killing
[8] = in vitro pharmacologic studies, CTCL cell lines

MYC, sequence (P01106 whole entry, species assumed): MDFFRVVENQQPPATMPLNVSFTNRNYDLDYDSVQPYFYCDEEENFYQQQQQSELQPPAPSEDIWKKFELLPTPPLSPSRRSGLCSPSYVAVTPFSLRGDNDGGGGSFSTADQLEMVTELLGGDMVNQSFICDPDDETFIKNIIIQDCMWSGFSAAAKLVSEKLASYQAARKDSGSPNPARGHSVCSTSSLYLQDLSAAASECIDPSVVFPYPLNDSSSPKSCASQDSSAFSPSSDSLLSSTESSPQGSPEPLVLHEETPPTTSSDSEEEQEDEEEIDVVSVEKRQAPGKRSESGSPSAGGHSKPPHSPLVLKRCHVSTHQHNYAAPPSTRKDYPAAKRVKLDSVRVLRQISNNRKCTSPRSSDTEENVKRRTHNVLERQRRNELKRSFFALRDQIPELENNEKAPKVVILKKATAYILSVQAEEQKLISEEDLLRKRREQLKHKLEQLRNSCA

With `O=c1nc(-c2ccccn2)sc2ccccc12` [BTZO-1] the “target cells remaining viable after treatment” value (“target cells remaining viable” for short) [1] was 50%.

For `Cc1cnc(CNC(=O)c2c(=O)c3ccc(N4CCCN(C)CC4)nc3n3c2sc2ccccc23)cn1` [CX5461], the “target cells remaining viable” value [1, 7] was 60-70%.

In the case of `COC(=O)C[C@](O)(CCCC(C)(C)O)C(=O)O[C@@H]1C(OC)=C[C@]23CCCN2CCc2cc4c(cc2[C@H]13)OCO4` [HHT, Omacetaxine mepesuccinate], the “target cells remaining viable” value [1, 7] is reported as 50%.

For `Cc1nc(-c2nc(-c3ccc(OC(F)(F)F)cc3)no2)nn1Cc1cccc(N2CCC(S(C)(=O)=O)CC2)c1` [IACS-010759], the “sensitivity to IACS-010759 as assessed by apoptosis” value ([2]; Myla, HH, Hu78, particularly for Myla, 8 nM, 5 days, Annexin V+PI+) is listed as “low nanomolar sensitivity”, the “anti-tumor activity in vitro (OXPHOS inhibitor)” value [2, 8] is listed as “potent anti-tumor activity” and the “effect of OXPHOS inhibition on tumor cells” value [3] is listed as “inhibition of tumor cell proliferation and induction of apoptosis”.

For `Cn1nc(C(F)(F)F)cc1-c1ccc(OCc2ccc(Cl)cc2)c(-c2ccc(Cl)c(C(F)(F)F)c2)c1O` [MYCi975], the “sensitivity to MYCi975 as assessed by cell proliferation, cell viability and cytotoxicity (MTS assay)” value [4] is given as “low micromolar sensitivity”, the “anti-tumor activity in vitro (MYC inhibitor)” value [4, 8] is given as “potent anti-tumor activity” and the “preclinical in-vivo activity against MYC” value [5] is given as “potent preclinical in-vivo activity against MYC”.

In the case of `CC(=O)c1c(C)c2cnc(Nc3ccc(N4CCNCC4)cn3)nc2n(C2CCCC2)c1=O` [Palbociclib], the “target cells remaining viable” value [1, 7] is reported as 50%.

B1: mogamulizumab: anti-CCR4, FDA approved breakthrough therapy for CTCL (antibody, chains of the INN, looked up, V domains shown)
VH: EVQLVESGGDLVQPGRSLRLSCAASGFIFSNYGMSWVRQAPGKGLEWVATISSASTYSYYPDSVKGRFTISRDNAKNSLYLQMNSLRVEDTALYYCGRHSDGNFAFGYWGQGTLVTVSS
VL: DVLMTQSPLSLPVTPGEPASISCRSSRNIVHINGDTYLEWYLQKPGQSPQLLIYKVSNRFSGVPDRFSGSGSGTDFTLKISRVEAEDVGVYYCFQGSLLPWTFGQGTKVEIK
In the case of B1, the “responses in blood, % of patients” value ([6]; blood compartment) is listed as 49.2%, the “responses in skin, % of patients” value ([6]; skin compartment) is listed as 27.4% and the ORR ([6]; mogamulizumab monotherapy, at ≥4 months (b5), at 4 months) is listed as 25.3%. For the same molecule, the “median PFS” value ([6]; mogamulizumab monotherapy) was 7.8 months.
